# Measured values from PubChem BioAssay AID1918999 (Molecular Pharmacology Branch, DTP, NCI, 2023).
# System: 556581-035-R-J1-PDC complex spheroid growth
# Test: Anticancer human tumor 556581-035-R-J1-PDC patient-derived ovarian carcinoma cell line growth inhibition [AhR]
# Conditions: for IC50: curve of first compound; for viability, T/C: stronger effect = lower value
# Procedure, shortened: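 Complex tumor spheroids co-cultured with HUVEC and human MSC stroma; AhR antagonists tested in combination with standard-of-care and investigational agents. Top concentration at or near clinical Cmax (else 10 microM), half-log dilutions; growth expressed as percent test/control.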
# [1] = second compound 0.1 µM, first compound 0.000949 µM
# [2] = second compound 0.1 µM, first compound 0.003 µM
# [3] = second compound 0.1 µM, first compound 0.00949 µM
# [4] = second compound 0.1 µM, first compound 0.03 µM
# [5] = second compound 0.1 µM, first compound 0.0949 µM
# [6] = second compound 0.1 µM, first compound 0.3 µM
# [7] = second compound 0.316 µM, first compound 0.000949 µM
# [8] = second compound 0.316 µM, first compound 0.003 µM
# [9] = second compound 0.316 µM, first compound 0.00949 µM
# [10] = second compound 0.316 µM, first compound 0.03 µM
# [11] = second compound 0.316 µM, first compound 0.0949 µM
# [12] = second compound 0.316 µM, first compound 0.3 µM
# [13] = second compound 1 µM, first compound 0.000949 µM
# [14] = second compound 1 µM, first compound 0.003 µM
# [15] = second compound 1 µM, first compound 0.00949 µM
# [16] = second compound 1 µM, first compound 0.03 µM
# [17] = second compound 1 µM, first compound 0.0949 µM
# [18] = second compound 1 µM, first compound 0.3 µM
# [19] = second compound 3.16 µM, first compound 0.000949 µM
# [20] = second compound 3.16 µM, first compound 0.003 µM
# [21] = second compound 3.16 µM, first compound 0.00949 µM
# [22] = second compound 3.16 µM, first compound 0.03 µM
# [23] = second compound 3.16 µM, first compound 0.0949 µM
# [24] = second compound 3.16 µM, first compound 0.3 µM
# [25] = second compound 10 µM, first compound 0.000949 µM
# [26] = second compound 10 µM, first compound 0.003 µM
# [27] = second compound 10 µM, first compound 0.00949 µM
# [28] = second compound 10 µM, first compound 0.03 µM
# [29] = second compound 10 µM, first compound 0.0949 µM
# [30] = second compound 10 µM, first compound 0.3 µM
# 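For viability, T/C in this document: compound exposure lasted 7 days; 100% = DMSO vehicle control growth.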
compound,measurement,setting,value
CC(C)CC(NC(=O)C(Cc1ccccc1)NC(=O)c1cnccn1)B(O)O (stereo not given) + Cc1cncc(-c2nc(NCCc3c[nH]c4ccccc34)c3ncn(C(C)C)c3n2)c1,IC50,second compound 0.1 µM,5.84 nM
same,IC50,second compound 0.316 µM,5.98 nM
same,IC50,second compound 1 µM,6.08 nM
same,IC50,second compound 3.16 µM,5.93 nM
same,IC50,second compound 10 µM,5.16 nM
same,"viability, T/C",[1],96.7%
same,"viability, T/C",[2],103%
same,"viability, T/C",[3],13.8%
same,"viability, T/C",[4],0.14%
same,"viability, T/C",[5],0.08%
same,"viability, T/C",[6],0.23%
same,"viability, T/C",[7],101%
same,"viability, T/C",[8],113%
same,"viability, T/C",[9],12%
same,"viability, T/C",[10],1.1%
same,"viability, T/C",[11],0.12%
same,"viability, T/C",[12],1.12%
same,"viability, T/C",[13],106%
same,"viability, T/C",[14],110%
same,"viability, T/C",[15],13.4%
same,"viability, T/C",[16],0.14%
same,"viability, T/C",[17],0.09%
same,"viability, T/C",[18],0.67%
same,"viability, T/C",[19],103%
same,"viability, T/C",[20],105%
same,"viability, T/C",[21],12.7%
same,"viability, T/C",[22],1.05%
same,"viability, T/C",[23],0.7%
same,"viability, T/C",[24],2.06%
same,"viability, T/C",[25],89.9%
same,"viability, T/C",[26],87.8%
same,"viability, T/C",[27],7.45%
same,"viability, T/C",[28],0.99%
same,"viability, T/C",[29],0.21%
same,"viability, T/C",[30],1.28%
CCc1c2c(nc3ccc(O)cc13)-c1cc3c(c(=O)n1C2)COC(=O)[C@]3(O)CC + Cc1cncc(-c2nc(NCCc3c[nH]c4ccccc34)c3ncn(C(C)C)c3n2)c1,IC50,second compound 0.1 µM,14.8 nM
same,IC50,second compound 0.316 µM,15.4 nM
same,IC50,second compound 1 µM,13.7 nM
same,IC50,second compound 3.16 µM,18.5 nM
same,IC50,second compound 10 µM,16.8 nM
same,"viability, T/C",[1],91.8%
same,"viability, T/C",[2],86.4%
same,"viability, T/C",[3],56.4%
same,"viability, T/C",[4],36%
same,"viability, T/C",[5],17.5%
same,"viability, T/C",[6],10.5%
same,"viability, T/C",[7],97.3%
same,"viability, T/C",[8],89.2%
same,"viability, T/C",[9],55.7%
same,"viability, T/C",[10],40%
same,"viability, T/C",[11],14.4%
same,"viability, T/C",[12],10.8%
same,"viability, T/C",[13],101%
same,"viability, T/C",[14],90.2%
same,"viability, T/C",[15],60.6%
same,"viability, T/C",[16],27.1%
same,"viability, T/C",[17],16.2%
same,"viability, T/C",[18],9.89%
same,"viability, T/C",[19],84.2%
same,"viability, T/C",[20],90.8%
same,"viability, T/C",[21],65.4%
same,"viability, T/C",[22],38.8%
same,"viability, T/C",[23],14.6%
same,"viability, T/C",[24],13.8%
same,"viability, T/C",[25],81.5%
same,"viability, T/C",[26],73.8%
same,"viability, T/C",[27],63%
same,"viability, T/C",[28],37.7%
same,"viability, T/C",[29],17.2%
same,"viability, T/C",[30],9.08%
Nc1ccccc1NC(=O)c1ccc(CNC(=O)OCc2cccnc2)cc1 + Cc1cncc(-c2nc(NCCc3c[nH]c4ccccc34)c3ncn(C(C)C)c3n2)c1,IC50,second compound 0.1 µM,2770 nM
same,IC50,second compound 0.316 µM,2420 nM
same,IC50,second compound 1 µM,2530 nM
same,IC50,second compound 3.16 µM,1940 nM
same,IC50,second compound 10 µM,791 nM
same,"viability, T/C","second compound 0.1 µM, first compound 0.0316 µM",106%
same,"viability, T/C","second compound 0.1 µM, first compound 0.1 µM",100%
same,"viability, T/C","second compound 0.1 µM, first compound 0.316 µM",93.7%
same,"viability, T/C","second compound 0.1 µM, first compound 1 µM",76.3%
same,"viability, T/C","second compound 0.1 µM, first compound 3.16 µM",46.2%
same,"viability, T/C","second compound 0.1 µM, first compound 10 µM",19.3%
same,"viability, T/C","second compound 0.316 µM, first compound 0.0316 µM",107%
same,"viability, T/C","second compound 0.316 µM, first compound 0.1 µM",121%
same,"viability, T/C","second compound 0.316 µM, first compound 0.316 µM",102%
same,"viability, T/C","second compound 0.316 µM, first compound 1 µM",78.5%
same,"viability, T/C","second compound 0.316 µM, first compound 3.16 µM",42%
same,"viability, T/C","second compound 0.316 µM, first compound 10 µM",19.7%
same,"viability, T/C","second compound 1 µM, first compound 0.0316 µM",108%
same,"viability, T/C","second compound 1 µM, first compound 0.1 µM",107%
same,"viability, T/C","second compound 1 µM, first compound 0.316 µM",89.5%
same,"viability, T/C","second compound 1 µM, first compound 1 µM",77%
same,"viability, T/C","second compound 1 µM, first compound 3.16 µM",42.2%
same,"viability, T/C","second compound 1 µM, first compound 10 µM",22.2%
same,"viability, T/C","second compound 3.16 µM, first compound 0.0316 µM",93%
same,"viability, T/C","second compound 3.16 µM, first compound 0.1 µM",99.2%
same,"viability, T/C","second compound 3.16 µM, first compound 0.316 µM",98.7%
same,"viability, T/C","second compound 3.16 µM, first compound 1 µM",67%
same,"viability, T/C","second compound 3.16 µM, first compound 3.16 µM",37.6%
same,"viability, T/C","second compound 3.16 µM, first compound 10 µM",18.1%
same,"viability, T/C","second compound 10 µM, first compound 0.0316 µM",79%
same,"viability, T/C","second compound 10 µM, first compound 0.1 µM",87%
same,"viability, T/C","second compound 10 µM, first compound 0.316 µM",64.5%
same,"viability, T/C","second compound 10 µM, first compound 1 µM",47.1%
same,"viability, T/C","second compound 10 µM, first compound 3.16 µM",22.8%
same,"viability, T/C","second compound 10 µM, first compound 10 µM",14.7%
